# Experimental data published in patent US20250361230A1, “LATS Inhibitors and Uses Thereof” (The USA, as Represented by the Secretary, Dept. of Heath …, priority 2022, published 2025).
# Like-named read-outs stand apart in the source and are kept apart here.
# Columns and labels:
# Assay type in all cases: biochemical
# [1] = target: AKT (Homo sapiens, UniProt P31749); assay: RBC HotSpot kinase assay (33P-ATP, P81 filter-binding), AKT
# Method in brief: (§1)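 Kinase in Hepes pH 7.5 buffer with Mg2+, EGTA, Brij35, BSA, vanadate, DTT and 1% DMSO, plus required cofactors and substrate, was preincubated 20 min at room temperature with compound. Reaction was started with 33P-ATP and run 2 h, then detected by P81 filter binding. IC50 (nM) came from 10-point singlet curves.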
# [2] = target: T1, LATS1 (Homo sapiens, UniProt O95835); assay: RBC HotSpot kinase assay (33P-ATP, P81 filter-binding), LATS1
# T1 sequence (O95835 1-1130): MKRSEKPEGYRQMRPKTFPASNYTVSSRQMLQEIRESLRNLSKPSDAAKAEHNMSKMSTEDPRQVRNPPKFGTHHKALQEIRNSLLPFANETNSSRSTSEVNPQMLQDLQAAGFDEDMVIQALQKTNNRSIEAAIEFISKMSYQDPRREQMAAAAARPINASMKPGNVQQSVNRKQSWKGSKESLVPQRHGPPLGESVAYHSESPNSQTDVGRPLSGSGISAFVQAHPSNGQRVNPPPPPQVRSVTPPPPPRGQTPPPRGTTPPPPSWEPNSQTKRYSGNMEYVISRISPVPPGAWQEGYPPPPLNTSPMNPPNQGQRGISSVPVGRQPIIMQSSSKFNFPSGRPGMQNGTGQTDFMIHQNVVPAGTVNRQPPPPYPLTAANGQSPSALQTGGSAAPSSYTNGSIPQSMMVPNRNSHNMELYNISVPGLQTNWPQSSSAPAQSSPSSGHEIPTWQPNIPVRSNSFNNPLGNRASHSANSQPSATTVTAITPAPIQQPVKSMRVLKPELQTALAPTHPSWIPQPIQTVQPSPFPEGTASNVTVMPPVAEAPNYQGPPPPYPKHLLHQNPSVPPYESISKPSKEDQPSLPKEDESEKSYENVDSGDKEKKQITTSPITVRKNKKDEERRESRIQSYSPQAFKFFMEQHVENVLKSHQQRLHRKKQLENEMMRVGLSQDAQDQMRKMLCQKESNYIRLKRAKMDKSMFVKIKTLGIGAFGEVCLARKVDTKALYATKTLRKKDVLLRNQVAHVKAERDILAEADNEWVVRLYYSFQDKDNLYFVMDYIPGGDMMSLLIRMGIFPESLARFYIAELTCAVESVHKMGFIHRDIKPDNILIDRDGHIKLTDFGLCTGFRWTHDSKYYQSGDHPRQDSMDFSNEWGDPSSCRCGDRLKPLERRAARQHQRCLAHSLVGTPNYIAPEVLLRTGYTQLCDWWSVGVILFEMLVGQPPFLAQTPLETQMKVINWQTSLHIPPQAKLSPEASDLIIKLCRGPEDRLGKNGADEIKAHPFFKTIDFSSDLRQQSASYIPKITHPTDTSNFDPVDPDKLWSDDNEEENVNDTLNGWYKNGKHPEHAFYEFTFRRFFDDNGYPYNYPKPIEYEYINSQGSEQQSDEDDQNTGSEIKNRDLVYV
# Method in brief: as §1
# [3] = target: T2, LATS2 (Homo sapiens, UniProt Q9NRM7); assay: RBC HotSpot kinase assay (33P-ATP, P81 filter-binding), LATS2
# T2 sequence (Q9NRM7 1-1088): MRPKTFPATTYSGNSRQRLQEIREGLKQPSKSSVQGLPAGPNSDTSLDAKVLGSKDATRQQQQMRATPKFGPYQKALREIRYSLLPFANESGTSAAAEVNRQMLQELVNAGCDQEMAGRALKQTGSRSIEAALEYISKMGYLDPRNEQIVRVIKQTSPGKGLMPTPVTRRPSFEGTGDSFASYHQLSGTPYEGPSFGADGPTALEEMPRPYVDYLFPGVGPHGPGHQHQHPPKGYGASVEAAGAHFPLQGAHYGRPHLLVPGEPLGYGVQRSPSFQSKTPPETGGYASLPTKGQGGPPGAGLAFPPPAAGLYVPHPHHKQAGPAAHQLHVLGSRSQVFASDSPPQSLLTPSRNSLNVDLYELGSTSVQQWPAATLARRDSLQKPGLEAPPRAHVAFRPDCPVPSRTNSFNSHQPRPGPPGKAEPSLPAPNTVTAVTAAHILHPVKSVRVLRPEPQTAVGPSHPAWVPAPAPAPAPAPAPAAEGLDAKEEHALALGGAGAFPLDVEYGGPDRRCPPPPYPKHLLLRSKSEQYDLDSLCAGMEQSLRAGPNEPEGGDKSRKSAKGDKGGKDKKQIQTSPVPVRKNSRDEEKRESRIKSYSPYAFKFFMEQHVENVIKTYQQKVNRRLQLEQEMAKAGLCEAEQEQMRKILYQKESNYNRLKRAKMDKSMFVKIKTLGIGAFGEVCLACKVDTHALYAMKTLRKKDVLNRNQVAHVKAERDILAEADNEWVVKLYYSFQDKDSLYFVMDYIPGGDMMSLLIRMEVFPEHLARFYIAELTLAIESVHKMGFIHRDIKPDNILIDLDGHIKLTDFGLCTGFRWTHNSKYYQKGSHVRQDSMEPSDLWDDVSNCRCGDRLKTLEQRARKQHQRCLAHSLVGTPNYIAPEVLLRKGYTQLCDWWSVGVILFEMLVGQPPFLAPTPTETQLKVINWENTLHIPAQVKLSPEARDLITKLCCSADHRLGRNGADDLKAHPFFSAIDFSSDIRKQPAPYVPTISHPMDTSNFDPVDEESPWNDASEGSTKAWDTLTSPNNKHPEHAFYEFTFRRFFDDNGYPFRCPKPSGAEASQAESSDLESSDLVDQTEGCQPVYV
# Method in brief: as §1
# [4] = Table 28, biochemical kinase assay, read-out: AKT IC50
# [5] = Table 28, biochemical kinase assay, read-out: LATS1 IC50
# [6] = Table 28, biochemical kinase assay, read-out: LATS2 IC50
# Sequence of AKT (P31749 whole entry): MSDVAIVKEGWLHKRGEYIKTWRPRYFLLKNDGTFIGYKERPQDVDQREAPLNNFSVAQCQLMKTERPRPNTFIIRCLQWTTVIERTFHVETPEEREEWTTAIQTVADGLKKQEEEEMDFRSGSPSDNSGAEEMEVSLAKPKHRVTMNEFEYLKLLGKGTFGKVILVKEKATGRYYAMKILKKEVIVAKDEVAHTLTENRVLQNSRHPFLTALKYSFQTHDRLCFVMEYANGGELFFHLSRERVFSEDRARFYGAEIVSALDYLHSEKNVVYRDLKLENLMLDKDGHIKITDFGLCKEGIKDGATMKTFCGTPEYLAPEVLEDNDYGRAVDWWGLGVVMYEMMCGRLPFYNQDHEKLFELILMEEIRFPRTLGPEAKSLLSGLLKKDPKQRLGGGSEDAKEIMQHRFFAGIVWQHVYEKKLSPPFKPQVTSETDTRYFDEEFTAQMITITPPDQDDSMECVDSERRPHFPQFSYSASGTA
"IC50 [1, 4]","IC50 [2, 5]","IC50 [3, 6]",SMILES,IC50 [1],IC50 [2],IC50 [3]
14 nM,1.8 nM,0.9 nM,"OC1(c2ccc(-c3ccnc4[nH]cc(Br)c34)cc2)C[C@H]2CC[C@@H](C1)N2 (stereo partly drawn) [Compound 118, (1R,5S)-3-(4-(3-bromo-1H-pyrrolo[2,3-b]pyridin-4-yl)phenyl)-8-azabicyclo[3.2.1]octan-3-ol]",–,–,–
–,–,–,"OC1(c2ccc(-c3ccnc4[nH]cc(Br)c34)nc2)C[C@H]2CC[C@@H](C1)N2 (stereo partly drawn) [Compound 119, (1R,5S)-3-(6-(3-bromo-1H-pyrrolo[2,3-b]pyridin-4-yl)pyridin-3-yl)-8-azabicyclo[3.2.1]octan-3-ol]",2590 nM,29.8 nM,184 nM
103 nM,58 nM,30 nM,"CC1CC(O)(c2ccc(-c3ccnc4[nH]cc(Br)c34)cc2Cl)CC(C)N1 (stereo not drawn) [Compound 120, 4-(4-(3-bromo-1H-pyrrolo[2,3-b]pyridin-4-yl)-2-chlorophenyl)-2,6-dimethylpiperidin-4-ol]",–,–,–
307 nM,10.2 nM,14.6 nM,"OC1(c2ccc(-c3ccnc4[nH]cc(Br)c34)cc2Cl)C2CNCC1C2 (stereo not drawn) [Compound 121, 6-(4-(3-bromo-1H-pyrrolo[2,3-b]pyridin-4-yl)-2-chlorophenyl)-3-azabicyclo[3.1.1]heptan-6-ol]",–,–,–
51.2 nM,5.3 nM,8.9 nM,"OC1(c2ccc(-c3ccnc4[nH]cc(Br)c34)cc2Cl)C[C@H]2CC[C@@H](C1)N2 (stereo partly drawn) [Compound 122, (1R,5S)-3-(4-(3-bromo-1H-pyrrolo[2,3-b]pyridin-4-yl)-2-chlorophenyl)-8-azabicyclo[3.2.1]octan-3-ol]",–,–,–
158 nM,12 nM,7 nM,"OC1(c2ccc(-c3ccnc4[nH]cc(Br)c34)cc2Cl)CNC1 [Compound 123, 3-(4-(3-bromo-1H-pyrrolo[2,3-b]pyridin-4-yl)-2-chlorophenyl)azetidin-3-ol]",–,–,–
128 nM,5.7 nM,3.7 nM,"CN1CCC(O)(c2ccc(-c3ccnc4[nH]cc(Br)c34)cc2)CC1 [Compound 124, 4-(4-(3-bromo-1H-pyrrolo[2,3-b]pyridin-4-yl)phenyl)-1-methylpiperidin-4-ol]",–,–,–
108 nM,14.1 nM,7 nM,"CC1CN(C)CC(C)C1(O)c1ccc(-c2ccnc3[nH]cc(Br)c23)cc1Cl (stereo not drawn) [Compound 125, 4-(4-(3-bromo-1H-pyrrolo[2,3-b]pyridin-4-yl)-2-chlorophenyl)-1,3,5-trimethylpiperidin-4-ol]",–,–,–
245 nM,9.1 nM,32 nM,"OC1(c2ccc(-c3ccnc4[nH]cc(-c5cccnc5)c34)cc2)CCNCC1 [Compound 126, 4-(4-(3-(pyridin-3-yl)-1H-pyrrolo[2,3-b]pyridin-4-yl)phenyl)piperidin-4-ol]",–,–,–
4300 nM,19 nM,40 nM,"Cc1cncc(-c2c[nH]c3nccc(-c4ccc(C5(O)CCNCC5)cc4)c23)c1 [Compound 127, 4-(4-(3-(5-methylpyridin-3-yl)-1H-pyrrolo[2,3-b]pyridin-4-yl)phenyl)piperidin-4-ol]",–,–,–
2050 nM,31 nM,36 nM,"CN1CCC(O)(c2ccc(-c3ccnc4[nH]cc(-c5cccnc5)c34)cc2)CC1 [Compound 128, 1-methyl-4-(4-(3-(pyridin-3-yl)-1H-pyrrolo[2,3-b]pyridin-4-yl)phenyl)piperidin-4-ol]",–,–,–
233 nM,157 nM,190 nM,"CC1CN(C)CC(C)C1(O)c1ccc(-c2ccnc3[nH]cc(F)c23)cc1-c1ccccc1 (stereo not drawn) [Compound 129, 4-(5-(3-fluoro-1H-pyrrolo[2,3-b]pyridin-4-yl)-[1,1′-biphenyl]-2-yl)-1,3,5-trimethylpiperidin-4-ol]",–,–,–
2260 nM,146 nM,381 nM,"C[C@@H]1CNC[C@H](C)C1(O)c1cnc(-c2ccnc3[nH]cc(F)c23)cc1-c1ccccc1 (stereo partly drawn) [Compound 130, (3S,5R)-4-(6-(3-fluoro-1H-pyrrolo[2,3-b]pyridin-4-yl)-4-phenylpyridin-3-yl)-3,5-dimethylpiperidin-4-ol]",–,–,–
1070 nM,28 nM,25 nM,"CN1CCC(O)(c2ccc(-c3ccnc4[nH]cc(F)c34)cc2)CC1 [Compound 131, 4-(4-(3-fluoro-1H-pyrrolo[2,3-b]pyridin-4-yl)phenyl)-1-methylpiperidin-4-ol]",–,–,–
490 nM,2.9 nM,5.7 nM,"CN1CCC(O)(c2ccc(-c3ccnc4[nH]ccc34)cc2)CC1 [Compound 132, 4-(4-(1H-pyrrolo[2,3-b]pyridin-4-yl)phenyl)-1-methylpiperidin-4-ol]",–,–,–
390 nM,20.1 nM,19.1 nM,"CN1[C@@H]2CC[C@H]1CC(O)(c1ccc(-c3ccnc4[nH]cc(F)c34)cc1)C2 (stereo partly drawn) [Compound 133, (1R,5S)-3-(4-(3-fluoro-1H-pyrrolo[2,3-b]pyridin-4-yl)phenyl)-8-methyl-8-azabicyclo[3.2.1]octan-3-ol]",–,–,–
788 nM,43.5 nM,116 nM,"CN1CC2CC(C1)C2(O)c1ccc(-c2ccnc3[nH]cc(F)c23)cc1Cl (stereo not drawn) [Compound 134, 6-(2-chloro-4-(3-fluoro-1H-pyrrolo[2,3-b]pyridin-4-yl)phenyl)-3-methyl-3-azabicyclo[3.1.1]heptan-6-ol]",–,–,–
7960 nM,736 nM,682 nM,"Cc1nc(-c2ccnc3[nH]ccc23)ccc1C1(O)CCN(C)CC1 [Compound 135, 1-methyl-4-(2-methyl-6-(1H-pyrrolo[2,3-b]pyridin-4-yl)pyridin-3-yl)piperidin-4-ol]",–,–,–
1060 nM,69.8 nM,118 nM,"CN1C[C@H]2CC[C@@H](C1)C2(O)c1ccc(-c2ccnc3[nH]cc(F)c23)cc1Cl (stereo partly drawn) [Compound 136, (1R,5S,8s)-8-(2-chloro-4-(3-fluoro-1H-pyrrolo[2,3-b]pyridin-4-yl)phenyl)-3-methyl-3-azabicyclo[3.2.1]octan-8-ol]",–,–,–
1180 nM,108 nM,350 nM,"CN1CC(O)(c2ccc(-c3ccnc4[nH]cc(F)c34)cc2Cl)C1 [Compound 137, 3-(2-chloro-4-(3-fluoro-1H-pyrrolo[2,3-b]pyridin-4-yl)phenyl)-1-methylazetidin-3-ol]",–,–,–
